According to PubChem BioAssay AID256 (DTP/NCI, 2004):
Inconclusive results and toxic doses are left out.

Test system: CD2F1 mice, L1210 leukemia ip, survival T/C
Assay: NCI In Vivo Anticancer Drug Screen. Data for tumor model L1210 Leukemia (intraperitoneal) in CD2F1 (CDF1) mice
Conditions: higher = longer survival
Summary of the method: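 Each value reflects a quotient of treated over vehicle control outcomes in mice with a transplanted tumor.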

[1] = endpoint: mean survival time, dose: 50.0 mg/kg/injection, schedule: Q01DX009 (ip), vehicle: saline with Tween-80
[2] = endpoint: mean survival time, dose: 100.0 mg/kg/injection, schedule: Q01DX009 (ip), vehicle: saline with Tween-80
[3] = endpoint: mean survival time, dose: 200.0 mg/kg/injection, schedule: Q01DX009 (ip), vehicle: saline with Tween-80
[4] = endpoint: mean survival time, dose: 400.0 mg/kg/injection, schedule: Q01DX009 (ip), vehicle: saline with Tween-80
[5] = endpoint: mean survival time, dose: 100.0 mg/kg/injection, schedule: Q01DX001 (ip), vehicle: saline
[6] = endpoint: mean survival time, dose: 200.0 mg/kg/injection, schedule: Q01DX001 (ip), vehicle: saline
[7] = endpoint: mean survival time, dose: 400.0 mg/kg/injection, schedule: Q01DX001 (ip), vehicle: saline
[8] = endpoint: mean survival time, dose: 150.0 mg/kg/injection, schedule: Q01DX001 (ip), vehicle: other
[9] = endpoint: mean survival time, dose: 300.0 mg/kg/injection, schedule: Q01DX001 (ip), vehicle: other
[10] = endpoint: mean survival time, dose: 100.0 mg/kg/injection, schedule: Q01DX001 (ip), vehicle: saline with Tween-80
[11] = endpoint: mean survival time, dose: 200.0 mg/kg/injection, schedule: Q01DX001 (ip), vehicle: saline with Tween-80
[12] = endpoint: mean survival time, dose: 400.0 mg/kg/injection, schedule: Q01DX001 (ip), vehicle: saline with Tween-80
[13] = endpoint: mean survival time, dose: 100.0 mg/kg/injection, schedule: Q04DX003 (ip), vehicle: saline with Tween-80
[14] = endpoint: mean survival time, dose: 200.0 mg/kg/injection, schedule: Q04DX003 (ip), vehicle: saline with Tween-80
[15] = endpoint: mean survival time, dose: 400.0 mg/kg/injection, schedule: Q04DX003 (ip), vehicle: saline with Tween-80
[16] = endpoint: mean survival time, dose: 50.0 mg/kg/injection, schedule: Q01DX009 (ip), vehicle: saline
[17] = endpoint: mean survival time, dose: 100.0 mg/kg/injection, schedule: Q01DX009 (ip), vehicle: saline
[18] = endpoint: mean survival time, dose: 200.0 mg/kg/injection, schedule: Q01DX009 (ip), vehicle: saline
[19] = endpoint: mean survival time, dose: 400.0 mg/kg/injection, schedule: Q01DX009 (ip), vehicle: saline

[C-]#[O+].[C-]#[O+].[C-]#[O+].[C-]#[O+].[C-]#[O+].[Cr].c1ccc(O[PH+](Oc2ccccc2)Oc2ccccc2)cc1
T/C [1]: 96 % of control | T/C [2]: 96 % of control | T/C [3]: 91 % of control

COS(=O)(=O)C=C(c1ccccc1)c1ccccc1
T/C (endpoint: mean survival time, dose: 75.0 mg/kg/injection, schedule: Q01DX009 (ip), vehicle: saline): 103 % of control | T/C (endpoint: mean survival time, dose: 75.0 mg/kg/injection, schedule: Q04DX003 (ip), vehicle: saline): 91 % of control | T/C (endpoint: mean survival time, dose: 150.0 mg/kg/injection, schedule: Q01DX009 (ip), vehicle: saline): 100 % of control | T/C (endpoint: mean survival time, dose: 150.0 mg/kg/injection, schedule: Q04DX003 (ip), vehicle: saline): 94 % of control | T/C (endpoint: mean survival time, dose: 300.0 mg/kg/injection, schedule: Q01DX009 (ip), vehicle: saline): 100 % of control | T/C (endpoint: mean survival time, dose: 300.0 mg/kg/injection, schedule: Q04DX003 (ip), vehicle: saline): 91 % of control

C(/C=C\c1ccccc1)=Nc1ccccc1
T/C (endpoint: mean survival time, dose: 25.0 mg/kg/injection, schedule: Q01DX009 (ip), vehicle: Klucel (hydroxypropylcellulose) (HPC)): 93 % of control | T/C (endpoint: mean survival time, dose: 50.0 mg/kg/injection, schedule: Q01DX009 (ip), vehicle: Klucel (hydroxypropylcellulose) (HPC)): 93 % of control | T/C (endpoint: mean survival time, dose: 100.0 mg/kg/injection, schedule: Q01DX001 (ip), vehicle: saline sonified): 93 % of control | T/C (endpoint: mean survival time, dose: 100.0 mg/kg/injection, schedule: Q01DX009 (ip), vehicle: Klucel (hydroxypropylcellulose) (HPC)): 95 % of control | T/C [2]: 101 % of control | T/C [3]: 97 % of control | T/C [4]: 92 % of control

O=[N+]([O-])c1ccc(/C(CBr)=N/N2CCCCC2)cc1
T/C [5]: 94 % of control | T/C [6]: 93 % of control | T/C [7]: 92 % of control

CCN(CC)CCC(CN(C)C)C(C)=O (configuration not stated)
T/C (endpoint: mean survival time, dose: 75.0 mg/kg/injection, schedule: Q01DX001 (ip), vehicle: other): 106 % of control | T/C [8]: 103 % of control | T/C [9]: 96 % of control

CC(CCCC#N)[N+](=O)[O-] (configuration not stated)
T/C (endpoint: mean survival time, dose: 5.0 mg/kg/injection, schedule: Q01DX001 (ip), vehicle: saline): 102 % of control | T/C (endpoint: mean survival time, dose: 10.0 mg/kg/injection, schedule: Q01DX001 (ip), vehicle: saline): 96 % of control | T/C (endpoint: mean survival time, dose: 20.0 mg/kg/injection, schedule: Q01DX001 (ip), vehicle: saline): 102 % of control | T/C (endpoint: mean survival time, dose: 40.0 mg/kg/injection, schedule: Q01DX001 (ip), vehicle: saline): 102 % of control | T/C [5]: 98 % of control

O=C1/C(=N/Nc2ccccc2)c2cccc3cccc1c23
T/C [10]: 97 % of control | T/C [11]: 100 % of control | T/C [12]: 106 % of control

O=[N+]([O-])c1ccccc1-c1cc(-c2ccccc2)nn1-c1ccccc1
T/C [2]: 102 % of control | T/C [13]: 98 % of control | T/C [3]: 103 % of control | T/C [14]: 98 % of control | T/C [4]: 97 % of control | T/C [15]: 95 % of control

COc1c(C2OC(CO)C(O)C2O)nn(C)c1C(N)=O (configuration not stated)
T/C (endpoint: median survival time, dose: 48.5 mg/kg/injection, schedule: Q01DX005 (ip), vehicle: saline): 100 % of control | T/C (endpoint: median survival time, dose: 97.0 mg/kg/injection, schedule: Q01DX005 (ip), vehicle: saline): 102 % of control | T/C (endpoint: median survival time, dose: 193.9 mg/kg/injection, schedule: Q01DX005 (ip), vehicle: saline): 100 % of control

CCCN(CCC)CC(C)O (configuration not stated)
T/C [16]: 95 % of control | T/C [17]: 101 % of control | T/C [18]: 97 % of control

OCCc1ccncc1
T/C [5]: 103 % of control | T/C [6]: 105 % of control

O=NN(CCBr)C(=O)Nc1ccccc1
T/C (endpoint: mean survival time, dose: 9.0 mg/kg/injection, schedule: Q01DX Z (ip), vehicle: carboxymethylcellulose (CMC)): 150 % of control | T/C (endpoint: mean survival time, dose: 18.0 mg/kg/injection, schedule: Q01DX Z (ip), vehicle: carboxymethylcellulose (CMC)): 162 % of control | T/C (endpoint: mean survival time, dose: 25.0 mg/kg/injection, schedule: Q01DX Z (ip), vehicle: carboxymethylcellulose (CMC)): 158 % of control | T/C (endpoint: mean survival time, dose: 37.0 mg/kg/injection, schedule: Q01DX Z (ip), vehicle: carboxymethylcellulose (CMC)): 183 % of control | T/C (endpoint: mean survival time, dose: 75.0 mg/kg/injection, schedule: Q01DX Z (ip), vehicle: carboxymethylcellulose (CMC)): 115 % of control | T/C (endpoint: mean survival time, dose: 100.0 mg/kg/injection, schedule: Q01DX Z (ip), vehicle: carboxymethylcellulose (CMC)): 103 % of control | T/C (endpoint: mean survival time, dose: 150.0 mg/kg/injection, schedule: Q01DX Z (ip), vehicle: carboxymethylcellulose (CMC)): 90 % of control

c1ccc(-c2cc3ccccc3c(-c3ccccc3)c2-c2ccccc2)cc1
T/C [8]: 90 % of control | T/C [9]: 88 % of control

[Cl][Pt+2][Cl].[NH-]Cc1ccccc1.[NH-]Cc1ccccc1
T/C (endpoint: mean survival time, dose: 50.0 mg/kg/injection, schedule: Q01DX001 (ip), vehicle: saline with Tween-80): 110 % of control | T/C [10]: 110 % of control | T/C [11]: 110 % of control

CO/N=C/[C@@H](CO)O[C@H](/C=N/OC)n1cnc2c(N)ncnc21
T/C (endpoint: median survival time, dose: 12.5 mg/kg/injection, schedule: Q01DX005 (ip), vehicle: distilled water + Tween-80): 97 % of control | T/C (endpoint: median survival time, dose: 25.0 mg/kg/injection, schedule: Q01DX005 (ip), vehicle: distilled water + Tween-80): 100 % of control | T/C (endpoint: median survival time, dose: 50.0 mg/kg/injection, schedule: Q01DX005 (ip), vehicle: distilled water + Tween-80): 97 % of control | T/C (endpoint: median survival time, dose: 100.0 mg/kg/injection, schedule: Q01DX005 (ip), vehicle: distilled water + Tween-80): 96 % of control | T/C (endpoint: median survival time, dose: 200.0 mg/kg/injection, schedule: Q01DX005 (ip), vehicle: distilled water + Tween-80): 100 % of control

O=C(Nc1cccc(Cl)c1)c1ccccc1
T/C [2]: 103 % of control | T/C [13]: 91 % of control | T/C [3]: 89 % of control | T/C [14]: 110 % of control | T/C [4]: 98 % of control | T/C [15]: 94 % of control

CCOC(=O)NC(NC(=O)OCC)C(Cl)Cl
T/C [10]: 103 % of control | T/C [11]: 105 % of control | T/C [12]: 97 % of control

O=C(O)C1CCC(C(=O)O)S1 (configuration not stated)
T/C [5]: 96 % of control | T/C [6]: 101 % of control | T/C [7]: 110 % of control

OC1(c2ccccc2)c2ccccc2C(O)(c2ccccc2)c2c1ccc1ccccc21 (configuration not stated)
T/C [1]: 91 % of control | T/C [2]: 94 % of control | T/C [3]: 91 % of control

O=C(Cc1ccccn1)NCC(O)c1ccccc1 (configuration not stated)
T/C (endpoint: mean survival time, dose: 100.0 mg/kg/injection, schedule: Q04DX003 (ip), vehicle: saline): 89 % of control | T/C (endpoint: mean survival time, dose: 200.0 mg/kg/injection, schedule: Q04DX003 (ip), vehicle: saline): 102 % of control | T/C (endpoint: mean survival time, dose: 400.0 mg/kg/injection, schedule: Q04DX003 (ip), vehicle: saline): 100 % of control

COc1cc(OC)c(NC(=O)Nc2ccc(C)c([N+](=O)[O-])c2)cc1Cl
T/C [1]: 98 % of control | T/C [2]: 90 % of control | T/C [3]: 94 % of control

COC(=O)C(NC(=O)C(CSC(c1ccccc1)(c1ccccc1)c1ccccc1)NC(c1ccccc1)(c1ccccc1)c1ccccc1)C(C)C (configuration not stated)
T/C [16]: 98 % of control | T/C [17]: 92 % of control | T/C [18]: 97 % of control | T/C [19]: 89 % of control

C(=C\CN1CCOCC1)/CN1CCOCC1
T/C [17]: 91 % of control | T/C [18]: 97 % of control | T/C [19]: 97 % of control

CCOC(=O)C1C(=O)N(Cc2ccccc2)C(=O)N1C (configuration not stated)
T/C (endpoint: mean survival time, dose: 12.5 mg/kg/injection, schedule: Q01DX009 (ip), vehicle: other): 98 % of control | T/C (endpoint: mean survival time, dose: 25.0 mg/kg/injection, schedule: Q01DX009 (ip), vehicle: other): 104 % of control | T/C (endpoint: mean survival time, dose: 50.0 mg/kg/injection, schedule: Q01DX009 (ip), vehicle: other): 100 % of control | T/C (endpoint: mean survival time, dose: 100.0 mg/kg/injection, schedule: Q01DX009 (ip), vehicle: other): 100 % of control | T/C (endpoint: mean survival time, dose: 200.0 mg/kg/injection, schedule: Q01DX009 (ip), vehicle: other): 100 % of control

c1ccc(C2Cc3ccccc3C2=NC2CCCCC2)cc1 (configuration not stated)
T/C [10]: 97 % of control | T/C [11]: 93 % of control | T/C [12]: 90 % of control
